Data on one compound can be found in publication PMC12216525, “Characterization of glutamine synthetase involved in the fecundity of Rhopalosiphum padi” (Scientific Reports, 2025).

The assay concerns RpGS1. As to conditions: read-out: RpGS1; 0.5-15 mM sodium glutamate; ATP, hydroxylamine, Mg2+ in solution B pH 7.4; 37 C; called purified in the discussion, methods describe protein released by ultrasonication.

As to `N[C@@H](CCC(=O)O)C(=O)O` [sodium glutamate], the Km was 580 µM.
